Molecules are shown by their SMILES.

For the compound `CCCCc1nc2c(N)nc3ccccc3c2n1NC(C)C` [Example 1, 2-Butyl-N^1-isopropyl-1H-imidazo[4,5-c]quinoline-1,4-diamine], the melting point (in general, the temperature of the solid-liquid transition) was in the range of 157.1 to 158.7 °C. As for `CCCCc1nc2c(N)nc3ccccc3c2n1NCc1ccccc1` [Example 2, N^1-Benzyl-2-butyl-1H-imidazo[4,5-c]quinoline-1,4-diamine], the figure is 159.3 to 160.5 °C; as for `Cc1nc2c(N)nc3ccccc3c2n1NC(C)C` [Example 3, N^1-Isopropyl-2-methyl-1H-imidazo[4,5-c]quinoline-1,4-diamine], 227 to 229 °C.

Compound `CCOCc1nc2c(N)nc3ccccc3c2n1NCc1ccccc1` [Example 4, N^1-Benzyl-2-ethoxymethyl-1H-imidazo[4,5-c]quinoline-1,4-diamine] yielded a melting point of 152 to 155 °C. As for `CCOCc1nc2c(N)nc3ccccc3c2n1NC(C)C` [Example 5, 2-Ethoxymethyl-N^1-isopropyl-1H-imidazo[4,5-c]quinoline-1,4-diamine], the figure is 162 to 164 °C.

Turning to `CCOCc1nc2c(N)nc3ccccc3c2n1NC1CCCCC1` [Example 6, N^1-Cyclohexyl-2-(ethoxymethyl)-1H-imidazo[4,5-c]quinoline-1,4-diamine], the melting point lay in the range of 143 to 145 °C. Turning to `CCOCc1nc2c(N)nc3ccccc3c2n1N(C)C` [Example 7, N^1,N^1-Dimethyl-2-ethoxymethyl-1H-imidazo[4,5-c]quinoline-1,4-diamine], the melting point lay in the range of 213 to 215 °C. For the compound `CCOCc1nc2c(N)nc3ccccc3c2n1NC(CC)CC` [Example 9, 2-Ethoxymethyl-N^1-(1-ethylpropyl)-1H-imidazo[4,5-c]quinoline-1,4-diamine], the melting point was in the range of 125 to 128 °C. Under `CCOCc1nc2c(N)nc3ccccc3c2n1NCC(C)C` [Example 10, 2-Ethoxymethyl-N^1-isobutyl-1H-imidazo[4,5-c]quinoline-1,4-diamine] stands 137 to 140 °C; under `CCOCc1nc2c(N)nc3c(c2n1NC(C)C)CCCC3` [Example 11, 2-Ethoxymethyl-N^1-isopropyl-6,7,8,9-tetrahydro-1H-imidazo[4,5-c]quinoline-1,4-diamine], 144 to 146 °C.

`CCOCc1nc2c(N)nc3ccccc3c2n1NCCC(C)C` [Example 12, 2-Ethoxymethyl-N^1-(3-methylbutyl)-1H-imidazo[4,5-c]quinoline-1,4-diamine] showed a melting point of 129 to 132 °C. The compound `CCOCc1nc2c(N)nc3ccccc3c2n1N1CCOCC1` [Example 13, 2-Ethoxymethyl-1-(morpholin-4-yl)-1H-imidazo[4,5-c]quinolin-4-amine] yielded a melting point of 223 to 224 °C. Under `CCOCc1nc2c(N)nc3ccccc3c2n1NCCCNS(C)(=O)=O` [Example 14, N-{3-[(4-Amino-2-ethoxymethyl-1H-imidazo[4,5-c]quinolin-1-yl)amino]propyl}methanesulfonamide] stands 148 to 150 °C; under `CCOCc1nc2c(N)nc3ccccc3c2n1NCCCNC(=O)Nc1ccccc1` [Example 15, 1-{3-[(4-Amino-2-ethoxymethyl-1H-imidazo[4,5-c]quinolin-1-yl)amino]propyl}-3-phenylurea], 177 to 179 °C; under `CCCc1nc2c(N)nc3ccccc3c2n1NC(C)C` [Example 16, N^1-Isopropyl-2-propyl-1H-imidazo[4,5-c]quinoline-1,4-diamine], 181 to 184 °C. As for `CCCc1nc2c(N)nc3c(c2n1NC(C)C)CCCC3` [Example 17, N^1-Isopropyl-2-propyl-6,7,8,9-tetrahydro-1H-imidazo[4,5-c]quinoline-1,4-diamine], the figure is 162 to 164 °C. Under `CCCc1nc2c(N)nc3cc(-c4cccnc4)ccc3c2n1NC(C)C` [Example 19, N^1-Isopropyl-2-propyl-7-(pyridin-3-yl)-1H-imidazo[4,5-c]quinoline-1,4-diamine] stands 218 to 219 °C. Compound `CCOCc1nc2c(N)nc3cc(OCc4ccccc4)ccc3c2n1NC(C)C` [Example 20, 7-Benzyloxy-2-ethoxymethyl-N^1-isopropyl-1H-imidazo[4,5-c]quinoline-1,4-diamine] had a melting point of 194 to 196 °C.

Take `CCOCc1nc2c(N)nc3ccccc3c2n1NCCCNC(=O)N1CCOCC1` [Example 23, [3-(4-Amino-2-ethoxymethyl-1H-imidazo[4,5-c]quinolin-1-ylamino)propyl]morpholine-4-carboxamide]: the melting point was in the range of 158 to 160 °C. `CCOCc1nc2c(N)nc3ccccc3c2n1NCCCNC(=O)C1CCCC1` [Example 24, N-(3-{[4-Amino-2-(ethoxymethyl)-1H-imidazo[4,5-c]quinolin-1-yl]amino}propyl)cyclopentanecarboxamide] gave a melting point of 75 to 77 °C. `CCOCc1nc2c(N)nc3ccccc3c2n1NCCCNC(=O)NC(C)C` [Example 25, 1-(3-{[4-Amino-2-(ethoxymethyl)-1H-imidazo[4,5-c]quinolin-1-yl]amino}propyl)-3-isopropylurea] registered a melting point of 174 to 177 °C.

Regarding `CCOCc1nc2c(N)nc3c(c2n1NCCCNC(=O)NC(C)C)CCCC3` [Example 26, 1-(3-{[4-Amino-2-(ethoxymethyl)-6,7,8,9-tetrahydro-1H-imidazo[4,5-c]quinolin-1-yl]amino}propyl)-3-isopropylurea], the melting point was in the range of 185 to 187 °C. `CCCc1nc2c(N)nc3cc(-c4cccc(NS(C)(=O)=O)c4)ccc3c2n1NC(C)C` [Example 27, N-{3-[4-Amino-1-(isopropylamino)-2-propyl-1H-imidazo[4,5-c]quinolin-7-yl]phenyl}methanesulfonamide] showed a melting point of 217 to 227 °C.

As for `CCOCc1nc2c(N)nc3c(c2n1NCCCNC(=O)N1CCOCC1)CCCC3` [Example 28, N-(3-{[4-Amino-2-(ethoxymethyl)-6,7,8,9-tetrahydro-1H-imidazo[4,5-c]quinolin-1-yl]amino}propyl)morpholine-4-carboxamide], the melting point was in the range of 152 to 154 °C. Regarding `CCCc1nc2c(N)nc3cc(-c4cccc(C(=O)N5CCOCC5)c4)ccc3c2n1NC(C)C` [Example 29, N^1-Isopropyl-7-[3-(morpholin-4-ylcarbonyl)phenyl]-2-propyl-1H-imidazo[4,5-c]quinoline-1,4-diamine], the melting point is 274 to 276 °C.

`CCOCc1nc2c(N)nc3cc(OCCCNS(C)(=O)=O)ccc3c2n1NC(C)C` [Example 30, N-(3-{[4-Amino-2-(ethoxymethyl)-1-(isopropylamino)-1H-imidazo[4,5-c]quinolin-7-yl]oxy}propyl)methanesulfonamide]: the melting point lay within 181 to 183 °C.

`CCCc1nc2c(N)nc3cc(-c4ccccc4)ccc3c2n1NC(C)C` [Example 31, N^1-Isopropyl-7-phenyl-2-propyl-1H-imidazo[4,5-c]quinoline-1,4-diamine] gave a melting point of 217 to 220 °C.

The compound `CCOCc1nc2c(N)nc3ccccc3c2n1NCCCNC(=O)C(C)C` [Example 32, N-(3-{[4-Amino-2-(ethoxymethyl)-1H-imidazo[4,5-c]quinolin-1-yl]amino}propyl)-2-methylpropanamide] returned a melting point of 108 to 110 °C. As for `CCOCc1nc2c(N)nc3c(c2n1NCCCNC(=O)C(C)C)CCCC3` [Example 33, N-(3-{[4-Amino-2-(ethoxymethyl)-6,7,8,9-tetrahydro-1H-imidazo[4,5-c]quinolin-1-yl]amino}propyl)-2-methylpropanamide], the figure is 163 to 165 °C; as for `CCOCc1nc2c(N)nc3ccccc3c2n1NCCCNC(C)=O` [Example 34, N-(3-{[4-Amino-2-(ethoxymethyl)-1H-imidazo[4,5-c]quinolin-1-yl]amino}propyl)acetamide], 178 to 181 °C; as for `CCCc1nc2c(N)nc3cc(CCc4cccnc4)ccc3c2n1NC(C)C` [Example 35, N^1-Isopropyl-2-propyl-7-(2-pyridin-3-ylethyl)-1H-imidazo[4,5-c]quinoline-1,4-diamine], 100 to 103 °C. Regarding `CCc1nc2c(N)nc3ccccc3c2n1NC(C)C` [Example 36, 2-Ethyl-N^1-isopropyl-1H-imidazo[4,5-c]quinoline-1,4-diamine], the melting point fell in the range of 245 to 247 °C. For `CCOCc1nc2c(N)nc3c(c2n1NCCCNC(C)=O)CCCC3` [Example 37, N-(3-{[4-Amino-2-(ethoxymethyl)-6,7,8,9-tetrahydro-1H-imidazo[4,5-c]quinolin-1-yl]amino}propyl)acetamide], the melting point lay within 198 to 200 °C.

In the case of `CCNC(=O)NCCCNn1c(COCC)nc2c(N)nc3ccccc3c21` [Example 38, 1-(3-{[4-Amino-2-(ethoxymethyl)-1H-imidazo[4,5-c]quinolin-1-yl]amino}propyl)-3-ethylurea], the melting point fell in the range of 138 to 141 °C. As for `CCNC(=O)NCCCNn1c(COCC)nc2c(N)nc3c(c21)CCCC3` [Example 39, 1-(3-{[4-Amino-2-(ethoxymethyl)-6,7,8,9-tetrahydro-1H-imidazo[4,5-c]quinolin-1-yl]amino}propyl)-3-ethylurea], the figure is 189 to 191 °C; as for `CCc1nc2c(N)nc3ccccc3c2n1NCCCNC(C)=O` [Example 40, N-{3-[(4-Amino-2-ethyl-1H-imidazo[4,5-c]quinolin-1-yl)amino]propyl}acetamide], 167 to 169 °C. Under `CCc1nc2c(N)nc3c(c2n1NCCCNC(C)=O)CCCC3` [Example 41, N-{3-[(4-Amino-2-ethyl-6,7,8,9-tetrahydro-1H-imidazo[4,5-c]quinolin-1-yl)amino]propyl}acetamide] stands 175 to 176 °C; under `CC(C)Nn1c(CO)nc2c(N)nc3ccccc3c21` [Example 42, [4-Amino-1-(isopropylamino)-1H-imidazo[4,5-c]quinolin-2-yl]methanol], 228 to 229 °C.

Values taken from patent US7163947B2, “1-Amino 1H-imidazoquinolines” (3M Innovative Properties Company, priority 2003, dated 2007).
